Assays:
[1] = target: PI3-kinase p110-delta/p85-alpha (Homo sapiens) (UniProt P27986+O00329); experiment: Inhibition of p110delta/p85alpha (unknown origin) at 100 nM incubated for 2 hrs in presence of ATP by ADP-kinaseGlo reagent based assay relative to control; type: protein-complex assay
[2] = target: T1, Bromodomain-containing protein 4 (Homo sapiens, UniProt O60885); experiment: Inhibition of His-tagged BRD4-BD1 (unknown origin) at 10 nM incubated for 30 mins by Alphascreen assay relative to control
[3] = target: T1, Bromodomain-containing protein 4; experiment: Inhibition of His-tagged BRD4-BD1 (unknown origin) incubated for 30 mins in presence of ATP by Alphascreen assay
SUD4 [4] = experiment: Antiproliferative against activity human SU-DHL-4 cells assessed as inhibition of cell growth incubated for 72 hrs by Celltiter-luminescence analysis; type: functional, cell-based; settings: SU-DHL-4, 72 h
SU-DHL-6 [5] = experiment: Antiproliferative against activity human SU-DHL-6 cells assessed as inhibition of cell growth incubated for 72 hrs by Celltiter-luminescence analysis; type: functional, cell-based; settings: SU-DHL-6, 72 h
SUD4 [6] = experiment: Antiproliferative against activity human SU-DHL-4 cells assessed as inhibition of cell growth incubated for 72 hrs in presence of 10:1 PI-3065:compound by Celltiter-luminescence analysis; type: functional, cell-based; settings: SU-DHL-4, 72 h
SU-DHL-6 [7] = experiment: Antiproliferative against activity human SU-DHL-6 cells assessed as inhibition of cell growth incubated for 72 hrs in presence of 10:1 PI-3065:compound by Celltiter-luminescence analysis; type: functional, cell-based; settings: SU-DHL-6, 72 h
[8] = target: PI3-kinase p110-delta/p85-alpha (Homo sapiens, UniProt O00329); experiment: Inhibition of p110delta/p85alpha (unknown origin) incubated for 2 hrs in presence of ATP by ADP-kinaseGlo reagent based assay; type: protein-complex assay
SUD4 [9] = experiment: Antiproliferative against activity human SU-DHL-4 cells assessed as inhibition of cell growth incubated for 72 hrs in presence of 10:1 compound:ABBV-75 by Celltiter-luminescence analysis; type: functional, cell-based; settings: SU-DHL-4, 72 h
SU-DHL-6 [10] = experiment: Antiproliferative against activity human SU-DHL-6 cells assessed as inhibition of cell growth incubated for 72 hrs in presence of 10:1 compound:ABBV-75 by Celltiter-luminescence analysis; type: functional, cell-based; settings: SU-DHL-6, 72 h

Sequence of PI3-kinase p110-delta/p85-alpha (P27986 whole entry): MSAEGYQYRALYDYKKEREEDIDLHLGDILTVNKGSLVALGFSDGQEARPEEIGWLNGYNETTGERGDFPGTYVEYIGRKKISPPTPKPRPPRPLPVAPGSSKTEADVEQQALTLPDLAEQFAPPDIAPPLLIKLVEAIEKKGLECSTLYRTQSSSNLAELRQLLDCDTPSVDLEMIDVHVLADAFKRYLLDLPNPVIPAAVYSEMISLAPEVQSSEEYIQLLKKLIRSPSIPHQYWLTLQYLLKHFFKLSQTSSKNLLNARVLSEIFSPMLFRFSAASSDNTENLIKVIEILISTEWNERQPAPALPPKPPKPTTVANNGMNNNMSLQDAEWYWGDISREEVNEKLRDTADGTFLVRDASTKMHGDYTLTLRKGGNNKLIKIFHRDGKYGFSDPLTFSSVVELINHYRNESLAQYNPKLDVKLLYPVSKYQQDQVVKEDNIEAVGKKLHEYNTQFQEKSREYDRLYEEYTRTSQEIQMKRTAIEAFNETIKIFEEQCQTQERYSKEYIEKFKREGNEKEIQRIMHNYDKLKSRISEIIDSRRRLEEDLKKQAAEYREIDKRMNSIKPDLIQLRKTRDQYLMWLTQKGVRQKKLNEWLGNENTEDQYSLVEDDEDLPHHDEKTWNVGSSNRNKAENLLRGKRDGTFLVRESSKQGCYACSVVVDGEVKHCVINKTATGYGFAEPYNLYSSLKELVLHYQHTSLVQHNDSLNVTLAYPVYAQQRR
Sequence of PI3-kinase p110-delta/p85-alpha (O00329 whole entry): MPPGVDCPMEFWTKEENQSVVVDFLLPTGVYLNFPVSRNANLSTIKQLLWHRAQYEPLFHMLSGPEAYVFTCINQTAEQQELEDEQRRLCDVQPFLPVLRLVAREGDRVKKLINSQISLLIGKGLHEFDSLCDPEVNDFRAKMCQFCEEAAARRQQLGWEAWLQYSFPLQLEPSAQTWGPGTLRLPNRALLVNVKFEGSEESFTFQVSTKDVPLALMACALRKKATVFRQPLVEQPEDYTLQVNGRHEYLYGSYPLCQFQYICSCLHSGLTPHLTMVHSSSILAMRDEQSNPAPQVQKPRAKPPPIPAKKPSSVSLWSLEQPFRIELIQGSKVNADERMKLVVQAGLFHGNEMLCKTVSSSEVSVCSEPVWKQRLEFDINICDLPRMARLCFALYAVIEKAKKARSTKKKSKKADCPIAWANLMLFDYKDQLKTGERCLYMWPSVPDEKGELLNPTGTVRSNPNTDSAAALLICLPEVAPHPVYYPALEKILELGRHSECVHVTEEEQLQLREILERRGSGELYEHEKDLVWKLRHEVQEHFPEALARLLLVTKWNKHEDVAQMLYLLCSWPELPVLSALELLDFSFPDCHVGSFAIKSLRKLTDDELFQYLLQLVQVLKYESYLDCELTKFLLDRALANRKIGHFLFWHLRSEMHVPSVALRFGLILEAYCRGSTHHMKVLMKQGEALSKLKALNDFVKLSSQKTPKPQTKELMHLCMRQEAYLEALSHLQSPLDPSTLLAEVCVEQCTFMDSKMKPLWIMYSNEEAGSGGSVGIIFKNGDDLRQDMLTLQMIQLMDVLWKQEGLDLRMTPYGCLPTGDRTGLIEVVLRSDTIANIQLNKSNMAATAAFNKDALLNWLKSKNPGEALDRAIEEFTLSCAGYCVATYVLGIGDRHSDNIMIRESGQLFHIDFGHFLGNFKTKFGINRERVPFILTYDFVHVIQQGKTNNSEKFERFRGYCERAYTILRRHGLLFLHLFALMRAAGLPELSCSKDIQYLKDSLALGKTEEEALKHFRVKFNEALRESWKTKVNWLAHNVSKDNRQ

Row | Compound | inhibition [1] [%] | inhibition [2] [%] | also measured
1 | Cn1cc(-c2nc(N3CCOCC3)c3sc(CN4CCN(C(=O)C(C)(C)O)CC4)cc3n2)c2cc[nH]c2c1=O | 20.1 | 32.6 | –
2 | C[C@H](N)C(=O)N1CCN(Cc2cc3nc(-c4cn(C)c(=O)c5[nH]ccc45)nc(N4CCOCC4)c3s2)CC1 | 19.5 | 59.9 | –
3 | CCS(=O)(=O)Nc1ccc(Oc2ccc(F)cc2F)c(-c2cn(C)c(=O)c3[nH]ccc23)c1 [MIVEBRESIB] | – | – | IC50 [3]: 0.73 nM; IC50 (SUD4 [4]): 41 nM; IC50 (SU-DHL-6 [5]): 23 nM; IC50 (SUD4 [6]): 14 nM; IC50 (SU-DHL-6 [7]): 10 nM
4 | Cn1cc(-c2nc(N3CCOCC3)c3sc(CN4CCN(C(=O)CN)CC4)cc3n2)c2cc[nH]c2c1=O | 16 | 28.2 | –
5 | Fc1ccc2[nH]ccc2c1-c1nc(N2CCOCC2)c2sc(CN3CCN(CC4CC4)CC3)cc2n1 | – | – | IC50 [8]: 23 nM; IC50 (SUD4 [4]): 263 nM; IC50 (SU-DHL-6 [5]): 1820 nM; IC50 (SUD4 [9]): 14 nM; IC50 (SU-DHL-6 [10]): 10 nM
6 | Cn1cc(-c2nc(N3CCOCC3)c3sc(CN4CCN(C(=O)CO)CC4)cc3n2)c2cc[nH]c2c1=O | 28.8 | 35.2 | –

Now from value to compound, other results behind:

Row | inhibition [1] [%] | inhibition [2] [%] | Compound | also measured
7 | 6 | 9.1 | CNc1cc(-c2nc(N3CCOCC3)c3sc(CN4CCN(CC5CC5)CC4)cc3n2)cn(C)c1=O | –
8 | 43.5 | 12.7 | Cn1cc(-c2nc(N3CCOCC3)c3sc(CN4CCN(CC5CC5)CC4)cc3n2)c2cn[nH]c2c1=O | –
9 | 19.5 | 58.2 | Cn1cc(-c2nc(N3CCOCC3)c3sc(CN4CCN(CC5CC5)CC4)cc3n2)c2cc[nH]c2c1=O | IC50 [8]: 464 nM; IC50 [3]: 7.8 nM; IC50 (SUD4 [4]): 220 nM; IC50 (SU-DHL-6 [5]): 53 nM
10 | 6 | 1.4 | Cc1c(-c2nc(N3CCOCC3)c3sc(CN4CCN(CC5CC5)CC4)cc3n2)cn(C)c(=O)c1N | –
11 | 0.9 | 35 | Cn1cc(-c2nc(N3CCCCC3)c3sc(CN4CCN(CC5CC5)CC4)cc3n2)c2cc[nH]c2c1=O | –

Reference: ChEMBL document CHEMBL6153089, “Design, Synthesis, and Biological Evaluation of Thieno[3,2-d]pyrimidine Derivatives as the First Bifunctional PI3Kδ Isoform Selective/Bromodomain and Extra-Terminal Inhibitors” (J Med Chem, 2025)
